Data: patent publication US11559482B2, “Biodegradable polyethylene glycol based water-insoluble hydrogels” (Ascendis Pharma A/S, priority 2009, dated 2023)

Assay: Injectability: force versus flow using a 30 G needle
Assay type: physicochemical
Settings: 1 mL syringe
Procedure: 5 mL insulin-linker-hydrogel prodrug 29 (bead size distribution from 32-75 μm, 18 mg insulin/ml insulin-linker-hydrogel prodrug suspension) was buffer exchanged into pH 5.0 succinic acid/tris (10 mM, 40 g/L mannitol; 10 g/L trehalose dihydrate; 0.05% TWEEN-20). The insulin-linker-hydrogel prodrug suspension was filled into a 1 mL syringe (length 57 mm) via a 20 G needle. The 20 G needle was replaced by a 30 G needle and placed into the syringe mounting (Aqua Computer GmbH&Co. KG) and the measurement was started with a piston velocity of 172 mm/min (equals 50 μL/s) (Force test stand: Multitest 1-d, Data recording software: EvaluatEmperor Lite, Version 1.16-015, Forge Gauge: BFG 200 N (all Mecmesin Ltd., UK). Experiments with increasing piston velocities shown in the table below were carried out with a new insulin-linker-hydrogel prodrug sample. The experiments with water and ethylene glycol were carried out accordingly. For all of the experiments the same 30 G needle was used.

Structure (SMILES): OCCO [ethylene glycol]
- Force (flow 6 sec/mL, 167 μL/sec, piston velocity 573 mm/min): 83 N
- Force (flow 8 sec/mL, 125 μL/sec, piston velocity 430 mm/min): 62 N
- Force (flow 10 sec/mL, 100 μL/sec, piston velocity 344 mm/min): 51 N
- Force (flow 15 sec/mL, 67 μL/sec, piston velocity 229 mm/min): 35 N
- Force (flow 20 sec/mL, 50 μL/sec, piston velocity 172 mm/min): 27 N
